From US11793741B2, “Topical composition” (Conopco, Inc., priority 2017, dated 2023)

Test system: psoriasin
Assay: Generation of psoriasin (AMP marker) by human keratinocytes, ELISA of cell culture supernatant
Format: cell-based
Conditions: NHEK cells, 72 hours; for Fold change in psoriasin levels over control: control (Example A) = 1
Procedure: The experiment was done with the above-mentioned cells with passage between 3 and 4. The cells were seeded (35,000 cells/well) in 24 well plate with keratinocyte growth media (KGM) obtained from Invitrogen®. The plate was then incubated at 37±2° C. in a CO2 incubator for 48 hours. Step 2: After 48 hours of incubation, cell differentiation was induced by replacing media with fresh KGM supplemented with 2 mM calcium chloride solution. This was then followed by incubation at 37±2° C. in a CO2 incubator for 48 hours. Step 3: After that, the cells were treated with niacinamide and the compound of formula I, i.e. N-cyclopropyl nicotinamide, in varying concentration as outlined in table 1 below with keratinocyte growth media supplemented with 2 mM calcium chloride solution. Step 4: After the above treatment, cells were again incubated at 37±2° C. in a CO2 incubator for 72 hours. Step 5: After 72 hours of incubation, cell culture supernatant from each well was collected in a sterile tube. The samples were then stored at −80° C. until used for testing psoriasin secretion by standard ELISA technique using psoriasin ELISA kit obtained from Circulx® (No: CY-8073). In the current experiment, psoriasin was used as a marker for AMP. Step 6: The ELISA method was performed by using 100 μL of cell culture supernatant from each sample. The data is expressed in terms of fold change over control (no treatment: Example A). The fold change in psoriasin levels in case of control (example A) is taken to be equal to 1 fold. Any fold change in psoriasin obtained due to treatments outlined in all the other examples was over and above the 1 fold change obtained from the control.

| SMILES | Fold change in psoriasin levels over control (100 μg/mL active) [fold] | Fold change in psoriasin levels over control (250 μg/mL active) [fold] | Fold change in psoriasin levels over control (500 μg/mL active) [fold] | Fold change in psoriasin over and above 1 fold of the control (100 μg/mL active) [fold] |
| --- | --- | --- | --- | --- |
| O=C(NC1CC1)c1cccnc1 [Example 1, N-cyclopropyl nicotinamide] | 1.61 | 1.88 | 2.16 |  |
| NC(=O)c1cccnc1 [Example B, Niacinamide] | 1.26 | 1.50 | 1.44 | 0.26 |
